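Compound exposure: 48 hours, 5 concentrations, 96-well plates. GI50 marks 50% less growth.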 Activity calls are given as the source filed them. No stated cut-off is given here; in the data, active = GI50 up to about 1.1 µM and inactive = higher.
Experiments:
Experiment in all cases: growth of human tumour cells (NCI), 48 h
786-0 = system: 786-0
A498 = system: A498
A549 = system: A549
ACHN = system: ACHN
BT-549 = system: BT-549
CAKI-1 = system: CAKI-1
CCRF-CEM = system: CCRF-CEM
COLO 205 = system: COLO 205
DU-145 = system: DU-145
EKVX = system: EKVX
HCC 2998 = system: HCC 2998
HCT-116 = system: HCT-116
HCT-15 = system: HCT-15
HL-60 = system: HL-60
HOP-62 = system: HOP-62
HOP-92 = system: HOP-92
HT-29 = system: HT-29
Hs-578T = system: Hs-578T
IGROV-1 = system: IGROV-1
KM12 = system: KM12
M14 = system: M14
MCF7 = system: MCF7
MDA-MB-231 = system: MDA-MB-231
MDA-MB-435 = system: MDA-MB-435
MOLT-4 = system: MOLT-4
Malme-3M = system: Malme-3M
NCI-H226 = system: NCI-H226
NCI-H23 = system: NCI-H23
NCI-H460 = system: NCI-H460
NCI-H522 = system: NCI-H522
NCI/ADR-RES = system: NCI/ADR-RES
OVCAR-3 = system: OVCAR-3
OVCAR-4 = system: OVCAR-4
OVCAR-5 = system: OVCAR-5
OVCAR-8 = system: OVCAR-8
PC-3 = system: PC-3
RPMI-8226 = system: RPMI-8226
RXF 393 = system: RXF 393
SF-268 = system: SF-268
SF-295 = system: SF-295
SF-539 = system: SF-539
SK-MEL-28 = system: SK-MEL-28
SK-MEL-2 = system: SK-MEL-2
SK-MEL-5 = system: SK-MEL-5
SK-OV-3 = system: SK-OV-3
SN12C = system: SN12C
SNB-19 = system: SNB-19
SNB-75 = system: SNB-75
SW-620 = system: SW-620
T47D = system: T47D
TK-10 = system: TK-10
U-251 = system: U-251
UACC-257 = system: UACC-257
UACC-62 = system: UACC-62
UO-31 = system: UO-31
K562 = system: K562
LOX IMVI = system: LOX IMVI

O=C(Nc1nccs1)NS(=O)(=O)n1cnc2ccccc21
GI50 (786-0): > 100 µM (inactive)
GI50 (A498): > 100 µM (inactive)
GI50 (A549): > 100 µM (inactive)
GI50 (ACHN): > 100 µM (inactive)
GI50 (BT-549): > 100 µM (inactive)
GI50 (CAKI-1): > 100 µM (inactive)
GI50 (CCRF-CEM): > 100 µM (inactive)
GI50 (COLO 205): > 100 µM (inactive)
GI50 (DU-145): > 100 µM (inactive)
GI50 (EKVX): > 100 µM (inactive)
GI50 (HCC 2998): > 100 µM (inactive)
GI50 (HCT-116): > 100 µM (inactive)
GI50 (HCT-15): > 100 µM
GI50 (HL-60): > 100 µM (inactive)
GI50 (HOP-62): > 100 µM (inactive)
GI50 (HOP-92): > 100 µM (inactive)
GI50 (HT-29): > 100 µM (inactive)
GI50 (Hs-578T): > 100 µM (inactive)
GI50 (IGROV-1): > 100 µM (inactive)
GI50 (KM12): > 100 µM (inactive)
GI50 (M14): > 100 µM (inactive)
GI50 (MCF7): > 100 µM (inactive)
GI50 (MDA-MB-231): > 100 µM (inactive)
GI50 (MDA-MB-435): > 100 µM (inactive)
GI50 (MOLT-4): > 100 µM (inactive)
GI50 (Malme-3M): > 100 µM (inactive)
GI50 (NCI-H226): > 100 µM (inactive)
GI50 (NCI-H23): > 100 µM (inactive)
GI50 (NCI-H460): > 100 µM (inactive)
GI50 (NCI-H522): > 100 µM (inactive)
GI50 (NCI/ADR-RES): > 100 µM (inactive)
GI50 (OVCAR-3): > 100 µM (inactive)
GI50 (OVCAR-4): > 100 µM (inactive)
GI50 (OVCAR-5): > 100 µM (inactive)
GI50 (OVCAR-8): > 100 µM (inactive)
GI50 (PC-3): > 100 µM (inactive)
GI50 (RPMI-8226): > 100 µM (inactive)
GI50 (RXF 393): > 100 µM (inactive)
GI50 (SF-268): > 100 µM (inactive)
GI50 (SF-295): > 100 µM (inactive)
GI50 (SF-539): > 100 µM (inactive)
GI50 (SK-MEL-28): > 100 µM (inactive)
GI50 (SK-MEL-2): > 100 µM (inactive)
GI50 (SK-MEL-5): > 100 µM (inactive)
GI50 (SK-OV-3): > 100 µM (inactive)
GI50 (SN12C): > 100 µM (inactive)
GI50 (SNB-19): > 100 µM (inactive)
GI50 (SNB-75): > 100 µM (inactive)
GI50 (SW-620): > 100 µM (inactive)
GI50 (T47D): > 100 µM (inactive)
GI50 (TK-10): > 100 µM (inactive)
GI50 (U-251): > 100 µM (inactive)
GI50 (UACC-257): > 100 µM (inactive)
GI50 (UACC-62): > 100 µM (inactive)
GI50 (UO-31): > 100 µM (inactive)

Nc1nc(N)c2cc(S(=O)(=O)c3ccc4ccccc4c3)ccc2n1
GI50 (786-0): 3.66 µM (inactive)
GI50 (A549): 0.718 µM (active)
GI50 (ACHN): 2.74 µM (inactive)
GI50 (BT-549): 11.7 µM (inactive)
GI50 (CAKI-1): 4.83 µM (inactive)
GI50 (EKVX): 8.13 µM (inactive)
GI50 (HCC 2998): > 100 µM (inactive)
GI50 (HCT-116): 0.495 µM (active)
GI50 (HCT-15): 3.93 µM
GI50 (HL-60): > 100 µM (inactive)
GI50 (HOP-62): 4.63 µM (inactive)
GI50 (HOP-92): 5.86 µM (inactive)
GI50 (Hs-578T): 8.39 µM (inactive)
GI50 (IGROV-1): 1.5 µM (inactive)
GI50 (K562): 0.541 µM (active)
GI50 (KM12): 9.95 µM (inactive)
GI50 (LOX IMVI): 0.766 µM (active)
GI50 (MDA-MB-231): 1.62 µM (inactive)
GI50 (MDA-MB-435): 3.3 µM (inactive)
GI50 (Malme-3M): 14.4 µM (inactive)
GI50 (NCI-H23): 4.27 µM (inactive)
GI50 (NCI-H460): 0.573 µM (active)
GI50 (NCI-H522): 3.9 µM (inactive)
GI50 (NCI/ADR-RES): 70.5 µM (inactive)
GI50 (OVCAR-3): > 100 µM (inactive)
GI50 (OVCAR-5): > 100 µM (inactive)
GI50 (OVCAR-8): 1.34 µM (inactive)
GI50 (PC-3): 1.58 µM (inactive)
GI50 (RPMI-8226): > 100 µM (inactive)
GI50 (SF-268): 5.22 µM (inactive)
GI50 (SF-295): 1.55 µM (inactive)
GI50 (SF-539): 3.33 µM (inactive)
GI50 (SK-MEL-28): > 100 µM (inactive)
GI50 (SK-MEL-2): 43.4 µM (inactive)
GI50 (SK-MEL-5): 11.9 µM (inactive)
GI50 (SK-OV-3): > 100 µM (inactive)
GI50 (SN12C): 7.69 µM (inactive)
GI50 (SNB-19): 6.03 µM (inactive)
GI50 (SNB-75): 2.86 µM (inactive)
GI50 (T47D): 1.46 µM (inactive)
GI50 (TK-10): > 100 µM (inactive)
GI50 (U-251): 3.24 µM (inactive)
GI50 (UACC-257): 0.142 µM (active)
GI50 (UACC-62): 2.57 µM (inactive)
GI50 (UO-31): 2.04 µM (inactive)
